# “Also recorded” adds a separate entry of the source.
# Columns and labels:
# [1] = molecular target: T1, Recombinant human peroxiredoxin 1 (Homo sapiens, UniProt Q06830); assay: LC-MS of trypsin or chymotrypsin digested Prx 1 after incubation with Tavocept; format: binding
# T1 construct: purchased SigmaAldrich
# T1 sequence (Q06830 1-199): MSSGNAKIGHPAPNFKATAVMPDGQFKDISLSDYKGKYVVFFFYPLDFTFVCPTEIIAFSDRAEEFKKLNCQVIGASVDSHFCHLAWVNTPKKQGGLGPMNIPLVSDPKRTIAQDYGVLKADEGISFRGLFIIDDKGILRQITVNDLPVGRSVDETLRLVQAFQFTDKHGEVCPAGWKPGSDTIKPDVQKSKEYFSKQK
# Method: Recombinant human peroxiredoxin 1 (purchased from SigmaAldrich; 333 μg; 0.015 micromoles) was reduced using an excess of dithiothreitol (DTT; 35 micromoles) in NH4HCO3 buffer (40 mM, pH 8.0) at 37° C. for 50 minutes (total reaction volume was 750 μL; final Prx concentration was 20 μM; and final DTT concentration was 46 mM). […] (total reaction volume was 500 μL). After 16-18 hours incubation, each reaction was removed and chromatographed using G25 Sephadex columns.
# In brief, the G25 chromatographed Prx1 incubation reactions were digested with Trypsin Gold. Trypsin Gold was dissolved in 400 μL of NH4HCO3 and 100 μL of acetonitrile. A 100-150 μL volume of this Trypsin Gold stock was then added to 500 μl of the aforementioned final sample with 75 μL of acetonitrile and then the reaction volume was adjusted to a total of 750 μL with NH4HCO3. The sample was incubated for 6 hours at 37° C. Chymotrypsin digests were by dissolving chymotrypsin in 1M HCL. A 50 μL volume of this chymotrypsin stock solution was added to added to 500 μl of the aforementioned final sample along with 10% (v/v) of CaCl2 (100 mM stock). NH4HCO3 buffer was then added to bring the total reaction volume to 750 μL. Chymotrypsin digests were incubated for 16 hours at 30° C. Following digest by either trypsin or chymotrypsin, reactions were lyophilized to dryness overnight and then resuspended in a minimal amount of HPLC grade water prior to LC MS analyses.
# A Symmetry C18 HPLC column (Waters, Franklin, Mass.; 3.5 μm; 4.6×75 mm) and a Waters Alliance liquid chromatography system (Waters 2695; Franklin, Mass.) coupled to a Micromass single quadropole mass detector (Micromass ZMD; Manchester, UK) were used to analyze fragments from trypsin or chymotrypsin digested human Prx1. The mobile phase contained 0.1% of formic acid throughout the run and the flow rate was 0.35 ml/min. […]
# [2] = molecular target: T2, Anaplastic Lymphoma Kinase (ALK) (Homo sapiens, UniProt Q9UM73); assay: ALK kinase activity (summary Table 27); format: biochemical
# T2 construct: illustrates the kinase domain of ALK (residues 1058-1623) which was used in these experiments; 6xHis (N); purchased Millipore lot 32944U-H (catalogue number not given); host or cells: baculovirus / Sf21
# T2 sequence (Q9UM73 1058-1620 limits assumed): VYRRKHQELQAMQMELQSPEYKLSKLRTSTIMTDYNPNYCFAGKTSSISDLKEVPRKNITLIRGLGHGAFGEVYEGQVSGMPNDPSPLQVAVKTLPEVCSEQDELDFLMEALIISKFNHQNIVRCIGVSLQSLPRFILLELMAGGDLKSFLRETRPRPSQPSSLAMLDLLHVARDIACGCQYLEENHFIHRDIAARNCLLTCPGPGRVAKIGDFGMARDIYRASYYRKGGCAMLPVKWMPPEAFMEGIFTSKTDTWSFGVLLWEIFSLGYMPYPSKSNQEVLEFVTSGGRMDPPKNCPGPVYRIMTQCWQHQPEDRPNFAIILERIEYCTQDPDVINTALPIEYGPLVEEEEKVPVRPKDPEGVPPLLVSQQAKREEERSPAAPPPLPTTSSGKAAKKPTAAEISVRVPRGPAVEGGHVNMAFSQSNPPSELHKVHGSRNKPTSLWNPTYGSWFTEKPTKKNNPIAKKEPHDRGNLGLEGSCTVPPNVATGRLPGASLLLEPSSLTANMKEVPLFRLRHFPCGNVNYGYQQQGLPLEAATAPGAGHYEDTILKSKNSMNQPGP
# [3] = test system: bovine brain microtubule protein (α-/β-tubulin); assay: Microtubule protein polymerization assay (OD350); format: biochemical
# [4] = molecular target: T3, Recombinant human ERCC1 (Homo sapiens, UniProt P07992); assay: LC-MS of trypsin-digested ERCC1 after incubation with Tavocept; format: binding; conditions: 20 mM Tavocept, LC-MS of tryptic fragments
# T3 construct: 6xHis (N); purchased Creative BioMart; host or cells: E. coli
# T3 sequence (P07992 whole entry, the tested form may be a part): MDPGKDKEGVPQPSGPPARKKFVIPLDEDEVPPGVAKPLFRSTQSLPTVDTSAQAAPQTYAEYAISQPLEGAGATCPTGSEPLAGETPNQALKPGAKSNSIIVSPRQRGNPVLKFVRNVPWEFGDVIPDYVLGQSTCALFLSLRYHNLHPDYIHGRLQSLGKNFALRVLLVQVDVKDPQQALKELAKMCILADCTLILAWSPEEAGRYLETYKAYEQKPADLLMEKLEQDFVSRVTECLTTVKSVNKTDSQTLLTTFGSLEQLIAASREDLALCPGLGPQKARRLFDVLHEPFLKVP
# Method: Recombinant human ERCC1 (1 mg; 27.8 nanomoles, Creative BioMart) was reduced using a vast excess of dithiothreitol (DTT, 100 μl of a 500 mM stock) in ammonium bicarbonate (40 mM, pH 8.0) at 37° C. for 75 minutes (total reaction volume was 900 μL). […] Each 800 μl reaction was then chromatographed over a NAP10 column. This step removed unreacted Tavocept and was used for the buffer control simply to ensure that both samples received the same handling/manipulation during the course of the experiment. The elution volume from each NAP10 column was 1.2 mL. […] Trypsin digestion reactions were incubated for 1 hour at 30° C. and then for 17 hours at room temperature (23° C.). Following the Trypsin digest, the samples were lyophilized to dryness overnight and then resuspended in a volume of approximately 100 μL water and analyzed using LC-MS. A Symmetry C18 HPLC column (Waters, Franklin, Mass.; 3.5 μm; 4.6 mm×75 mm) and a Waters Alliance liquid chromatography system (Waters 2695, Franklin, Mass., USA) coupled to a Micromass single quadropole mass detector (Micromass ZMD, Manchester, UK) were used to analyze fragments from trypsin-digested human ERCC1. The mobile phase contained 0.1% of formic acid throughout the run and the flow rate was 0.35 mL/min. […]
smiles,measurement,setting,value
"O=S(=O)([O-])CCSSCCS(=O)(=O)[O-].[Na+].[Na+] [Tavocept, disodium 2,2′-dithio-bis-ethane sulfonate]",Tavocept-derived mesna Adduct detected?,[1]; chymotryptic fragment VCPTEIIAF (Cys 52),Yes
same,Tavocept-derived mesna Adduct detected?,[1]; chymotryptic fragment […] (Cys 173),Yes
same,Tavocept-derived mesna Adduct detected?,[1]; tryptic fragment […] (Cys 173),Yes
same,Cellular consequence of BNP7787-modification and/or modulation: ALK,[2],BNP7787 disrupts/blocks ATP binding site resulting in inhibition
same,inhibition of paclitaxel promoted microtubule protein polymerization,"[3]; 12 mM Tavocept, qualitative",approximately 50%
same,effect on paclitaxel-promoted microtubule protein hyperpolymerization,"[3]; Tavocept 1, 4, 8, 12 and 16 mM, paclitaxel 10 μM",inhibit paclitaxel-promoted microtubule protein hyperpolymerization in a dose-dependent manner; also recorded: normalizes
same,effect on GTP-catalyzed polymerization of microtubule protein,"[3]; Tavocept 4, 6, 8, and 10 mM preincubated with microtubule protein on ice for 20 minutes",dose-dependent inhibitory effect; also recorded: inhibit GTP-catalyzed polymerization; also recorded: modulate tubulin polymerization in a concentration dependent manner
same,effect on paclitaxel/GTP/MgCl2-catalyzed microtubule protein hyperpolymerization,"[3]; Tavocept 6, 8, 10 and 12 mM",inhibit paclitaxel/GTP/MgCl2-catalyzed microtubule protein hyperpolymerization in a dose dependent manner
same,Tavocept concentration at which final polymerization with paclitaxel was essentially equal to GTP control,[3]; paclitaxel 10 μM,≥ 6 mM
same,Tavocept concentrations that reproducibly inhibit paclitaxel promoted hyperpolymerization,[3]; paclitaxel 10 μM,> 1 mM
same,Tavocept concentrations giving net polymerization equivalent to GTP/MgCl2 only control,[3]; paclitaxel/GTP/MgCl2 10 μM/1 mM/1 mM,6 to 8 mM
same,ERCC1 cysteine residue carrying Tavocept-derived mesna adduct,[4],Cys238; also recorded: Cys274

# Reference: US20170007561A1, “CONTEMPORANEOUS, HETEROGENEOUSLY-ORIENTED, MULTI-TARGETED THERAPEUTIC MODIFICATION AND/OR MODULATION OF DISEASE BY ADMINISTRATION OF SULFUR-CONTAINING, AMINO ACID-SPECIFIC SMALL MOLECULES” (BioNumerik Pharmaceuticals, Inc., priority 2014, published 2017)
